Key:
RspA-FAST = conditions: PBS pH […] presumably; details in supplement
TsiA-FAST = conditions: PBS pH […] presumably; details in supplement
[1] = biological target: RspA-splitFAST (assembled NC complex; FRB-RspA(N) + FKBP-RspA(C)); conditions: read-out: Kd,F/C; […] each FRB-N and FKBP-C preassembled with […] rapamycin

Row | SMILES | Kd (RspA-FAST) | Kd (TsiA-FAST) | Kd [1]
1 | COc1cc(/C=C2\SC(=S)NC2=O)cc(OC)c1O [HBR-3,5DOM] | 74 nM | 60 nM | 
2 | Cc1cc(/C=C2\SC(=S)NC2=O)ccc1O [HMBR] |  |  | 150 ± 10 nM
